Literature values, collected in article PMC8513935.

Experiments:
[1] = log P octanol/water from commercial databases, averaged (the ESI); settings: Octanol (wet), 25 C
[2] = derived by the authors as gas->solvent minus gas->water (a hypothetical dry solvent; the ESI), not a two-phase measurement
[3] = experimental, compiled by the authors from the literature (the ESI cites the sources)

log K of transfer, water to solvent ([2]; Methanol, 25 C) | log K of transfer, gas to solvent ([3]; Methanol, 25 C) | log K of transfer, water to solvent ([2]; Hexane, 25 C) | log K of transfer, gas to solvent ([3]; Hexane, 25 C) | Compound | log K of transfer, water to solvent [1] | log K of transfer, water to solvent ([2]; Ethanol, 25 C) | log K of transfer, water to solvent ([2]; Hexadecane, 25 C) | log K of transfer, water to solvent ([2]; Propan-2-ol, 25 C) | log K of transfer, water to solvent ([2]; Tetrahydrofuran, 25 C) | log K of transfer, gas to solvent ([3]; Ethanol, 25 C) | log K of transfer, gas to solvent ([3]; Hexadecane, 25 C) | log K of transfer, gas to solvent ([3]; Propan-2-ol, 25 C) | log K of transfer, gas to solvent ([3]; Tetrahydrofuran, 25 C) | log K of transfer, gas to solvent ([3]; Water, 25 C) | log K of transfer, water to solvent ([2]; Octan-1-ol(dry), 25 C) | log K of transfer, water to solvent ([2]; Pentan-1-ol, 25 C) | log K of transfer, gas to solvent ([3]; Octan-1-ol, 25 C) | log K of transfer, gas to solvent ([3]; Pentan-1-ol, 25 C) | log K of transfer, water to solvent ([2]; Chloroform, 25 C) | log K of transfer, gas to solvent ([3]; Chloroform, 25 C) | also measured
0.29 log10 K | 1.69 log10 K | -0.087 log10 K | 1.31 log10 K | COC | 0.0999 log10 K | – | -0.115 log10 K | 0.16 log10 K | – | – | 1.28 log10 K | 1.56 log10 K | – | 1.4 log10 K | -0.03 log10 K | 0.05 log10 K | 1.37 log10 K | 1.45 log10 K | – | – | log K of transfer, water to solvent ([2]; 2-Methylpropan-1-ol, 25 C): 0.14 log10 K; log K of transfer, water to solvent ([2]; 2-Methylpropan-2-ol, 25 C): 0.25 log10 K; log K of transfer, water to solvent ([2]; 3-Methylbutan-1-ol, 25 C): 0.057 log10 K; log K of transfer, water to solvent ([2]; Butan-1-ol, 25 C): 0.0999 log10 K; log K of transfer, water to solvent ([2]; Butan-2-ol, 25 C): 0.14 log10 K; log K of transfer, water to solvent ([2]; Chlorobenzene, 25 C): 0.2 log10 K; log K of transfer, gas to solvent ([3]; 2-Methylpropan-1-ol, 25 C): 1.54 log10 K; log K of transfer, gas to solvent ([3]; 2-Methylpropan-2-ol, 25 C): 1.65 log10 K; log K of transfer, gas to solvent ([3]; 3-Methylbutan-1-ol, 25 C): 1.46 log10 K; log K of transfer, gas to solvent ([3]; Butan-1-ol, 25 C): 1.5 log10 K; log K of transfer, gas to solvent ([3]; Butan-2-ol, 25 C): 1.54 log10 K; log K of transfer, gas to solvent ([3]; Chlorobenzene, 25 C): 1.6 log10 K
– | – | – | – | OC1CCCCC1 | 1.23 log10 K | – | -0.252 log10 K | – | – | – | 3.76 log10 K | – | – | 4.01 log10 K | 1.17 log10 K | – | 5.18 log10 K | – | 1.12 log10 K | 5.13 log10 K | log K of transfer, water to solvent ([2]; Acetone, 25 C): 1.08 log10 K; log K of transfer, water to solvent ([2]; Decan-1-ol, 25 C): 1.48 log10 K; log K of transfer, gas to solvent ([3]; Decan-1-ol, 25 C): 5.48 log10 K; log K of transfer, gas to solvent ([3]; Propanone, 25 C): 5.09 log10 K
-0.62 log10 K | 4.07 log10 K | -4.15 log10 K | 0.54 log10 K | O | -1.38 log10 K | -0.97 log10 K | -4.44 log10 K | -1.28 log10 K | -1.78 log10 K | 3.72 log10 K | 0.245 log10 K | 3.41 log10 K | 2.91 log10 K | 4.69 log10 K | – | – | – | – | -3.15 log10 K | 1.54 log10 K | log K of transfer, water to solvent ([2]; Acetone, 25 C): -1.47 log10 K; log K of transfer, water to solvent ([2]; Benzene, 25 C): -3.44 log10 K; log K of transfer, water to solvent ([2]; CCl4, 25 C): -4.05 log10 K; log K of transfer, water to solvent ([2]; Cyclohexane, 25 C): -4.4 log10 K; log K of transfer, water to solvent ([2]; Dichloromethane, 25 C): -2.75 log10 K; log K of transfer, water to solvent ([2]; Perfluoroalkane, 25 C): -4.36 log10 K; log K of transfer, water to solvent ([2]; Toluene, 25 C): -3.45 log10 K; log K of transfer, gas to solvent ([3]; Benzene, 25 C): 1.25 log10 K; log K of transfer, gas to solvent ([3]; CCl4, 25 C): 0.64 log10 K; log K of transfer, gas to solvent ([3]; Cyclohexane, 25 C): 0.29 log10 K; log K of transfer, gas to solvent ([3]; Dichloromethane, 25 C): 1.94 log10 K; log K of transfer, gas to solvent ([3]; Perfluoroalkane, 25 C): 0.33 log10 K; log K of transfer, gas to solvent ([3]; Propanone, 25 C): 3.22 log10 K; log K of transfer, gas to solvent ([3]; Toluene, 25 C): 1.24 log10 K
– | – | – | – | Cc1ccccc1C | 3.12 log10 K | – | 3.28 log10 K | – | – | – | 3.94 log10 K | – | – | 0.66 log10 K | 3.24 log10 K | 3.14 log10 K | 3.9 log10 K | 3.8 log10 K | 3.91 log10 K | 4.57 log10 K | log K of transfer, water to solvent ([2]; 1,2-Dichloroethane, 25 C): 3.83 log10 K; log K of transfer, water to solvent ([2]; CCl4, 25 C): 3.87 log10 K; log K of transfer, water to solvent ([2]; Cyclohexane, 25 C): 3.32 log10 K; log K of transfer, water to solvent ([2]; Toluene, 25 C): 3.82 log10 K; log K of transfer, gas to solvent ([3]; 1,2-Dichloroethane, 25 C): 4.49 log10 K; log K of transfer, gas to solvent ([3]; CCl4, 25 C): 4.53 log10 K; log K of transfer, gas to solvent ([3]; Cyclohexane, 25 C): 3.98 log10 K; log K of transfer, gas to solvent ([3]; Toluene, 25 C): 4.48 log10 K

Compound | log K of transfer, water to solvent ([2]; Methanol, 25 C) | log K of transfer, gas to solvent ([3]; Methanol, 25 C) | log K of transfer, water to solvent ([2]; Hexane, 25 C) | log K of transfer, gas to solvent ([3]; Hexane, 25 C) | log K of transfer, water to solvent [1] | log K of transfer, water to solvent ([2]; Ethanol, 25 C) | log K of transfer, water to solvent ([2]; Hexadecane, 25 C) | log K of transfer, water to solvent ([2]; Propan-2-ol, 25 C) | log K of transfer, water to solvent ([2]; Tetrahydrofuran, 25 C) | log K of transfer, gas to solvent ([3]; Ethanol, 25 C) | log K of transfer, gas to solvent ([3]; Hexadecane, 25 C) | log K of transfer, gas to solvent ([3]; Propan-2-ol, 25 C) | log K of transfer, gas to solvent ([3]; Tetrahydrofuran, 25 C) | log K of transfer, gas to solvent ([3]; Water, 25 C) | log K of transfer, water to solvent ([2]; Octan-1-ol(dry), 25 C) | log K of transfer, water to solvent ([2]; Pentan-1-ol, 25 C) | log K of transfer, gas to solvent ([3]; Octan-1-ol, 25 C) | log K of transfer, gas to solvent ([3]; Pentan-1-ol, 25 C) | log K of transfer, water to solvent ([2]; Chloroform, 25 C) | log K of transfer, gas to solvent ([3]; Chloroform, 25 C) | also measured
CCCCc1ccccc1 | 3.99 log10 K | 4.28 log10 K | – | – | 4.26 log10 K | 3.91 log10 K | 4.44 log10 K | 4.06 log10 K | 5.09 log10 K | 4.2 log10 K | 4.73 log10 K | 4.35 log10 K | 5.38 log10 K | 0.29 log10 K | – | – | – | – | – | – | –
CCCCCCCCCCO | – | – | 2.97 log10 K | 5.64 log10 K | 4.12 log10 K | – | 2.94 log10 K | 4.49 log10 K | – | – | 5.61 log10 K | 7.16 log10 K | – | 2.67 log10 K | – | – | – | – | – | – | log K of transfer, water to solvent ([2]; Decan-1-ol, 25 C): 4.36 log10 K; log K of transfer, water to solvent ([2]; Propan-1-ol, 25 C): 4.46 log10 K; log K of transfer, gas to solvent ([3]; Decan-1-ol, 25 C): 7.03 log10 K; log K of transfer, gas to solvent ([3]; Propan-1-ol, 25 C): 7.13 log10 K
